≈ marks a conversion by molar mass, not a printed value.
Tests used:
4T1 cells [4T1细胞] [1] = experiment: In vitro cytotoxicity test (MTT, 72 h); settings: Mus musculus, 4T1, 72 h
4T1 cells [4T1细胞] [2] = test system: 4T1 cells [4T1细胞]

In the case of `CC(=O)O[C@@]12CO[C@@H]1C[C@H](O)[C@@]1(C)C(=O)[C@H](O)C3=C(C)[C@@H](OC(=O)[C@H](O)[C@@H](NC(=O)OC(C)(C)C)c4ccccc4)C[C@@](O)([C@@H](OC(=O)c4ccccc4)[C@H]21)C3(C)C` [多西他赛], the IC50 (4T1 cells [4T1细胞] [1]) is reported as 0.0265 ± 0.00136 µg/mL (≈ 0.0328 µM).

`CCCCCC=CCC=CCCCCCCCC(=O)OC(C(=O)OC1CC2(O)C(OC(=O)c3ccccc3)C3C4(OC(C)=O)COC4CC(O)C3(C)C(=O)C(O)C(=C1C)C2(C)C)C(NC(=O)OC(C)(C)C)c1ccccc1` (stereo not drawn) [多西他赛亚油酸酯] was tested, and the IC50 (4T1 cells [4T1细胞] [1]) was 0.0136 ± 0.00204 µg/mL (≈ 0.0127 µM) and the “cytotoxicity (in words)” value (4T1 cells [4T1细胞] [2]) was “细胞毒性强于多西他赛”.

From patent CN108310390A, “多西他赛亚油酸酯及其脂肪乳剂和应用” (Shenyang Pharmaceutical University, priority 2018, dated 2018)
